In the experiment the target is T1, STAT6 (Homo sapiens, UniProt P42226).
T1 construct: endogenous in cells; host or cells: MOLM-16, KU-812, SKNO1, MB231, L1236
T1 sequence (P42226 1-847): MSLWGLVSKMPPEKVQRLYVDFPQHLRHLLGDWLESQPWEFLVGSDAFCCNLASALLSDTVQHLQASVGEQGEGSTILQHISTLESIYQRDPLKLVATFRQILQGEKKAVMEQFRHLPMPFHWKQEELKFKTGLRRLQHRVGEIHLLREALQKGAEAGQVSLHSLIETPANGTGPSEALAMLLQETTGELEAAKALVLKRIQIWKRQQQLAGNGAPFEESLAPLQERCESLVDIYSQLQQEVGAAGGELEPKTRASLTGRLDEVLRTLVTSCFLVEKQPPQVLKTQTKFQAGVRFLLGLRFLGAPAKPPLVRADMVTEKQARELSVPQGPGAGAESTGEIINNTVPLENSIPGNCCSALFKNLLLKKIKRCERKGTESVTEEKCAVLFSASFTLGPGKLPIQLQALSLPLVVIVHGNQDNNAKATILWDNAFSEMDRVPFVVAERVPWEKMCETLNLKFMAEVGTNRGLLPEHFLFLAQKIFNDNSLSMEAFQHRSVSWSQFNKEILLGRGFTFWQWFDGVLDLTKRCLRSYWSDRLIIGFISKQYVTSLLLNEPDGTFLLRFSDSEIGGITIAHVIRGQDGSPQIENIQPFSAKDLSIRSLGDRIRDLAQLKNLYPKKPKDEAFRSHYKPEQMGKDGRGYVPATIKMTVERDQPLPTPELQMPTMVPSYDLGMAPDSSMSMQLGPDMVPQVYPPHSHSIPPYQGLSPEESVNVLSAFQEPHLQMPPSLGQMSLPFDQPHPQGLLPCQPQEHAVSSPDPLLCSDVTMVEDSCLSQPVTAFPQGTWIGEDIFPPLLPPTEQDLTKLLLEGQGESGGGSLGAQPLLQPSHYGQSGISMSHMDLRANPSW
Briefly: Immunoblotting (Western blot) analysis of STAT6 degradation efficiency of degraders in treated cells. Format: cell-based. An outline of the steps: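 Cells (~1 million per point) treated with compounds at indicated concentrations and times, lysed in RIPA with protease/phosphatase inhibitors; 20-40 μg protein run on SDS-PAGE and blotted to PVDF. STAT6 or STAT5 rabbit mAbs with GAPDH loading control, IRDye secondaries; near-infrared fluorescence scan, band intensity quantified.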
(In general: In western blotting, separated proteins are transferred to a membrane and probed.)

The mark [1] stands for this setting: MOLM-16 cells, class symbols, read-out: DC50 S6 MOLM-16.
The mark [2] stands for this setting: L1236 cells, read-out: DC50 S6 L1236.
The mark [3] stands for this setting: MB231 cells, read-out: DC50 S6 MB231.
The mark [4] stands for this setting: MOLM-16 cells, numeric bound, read-out: DC50 S6 MOLM-16.

Where two headings read alike, the source gives them in different places. A value given as a limit tells only on which side of the number the result lay.

Broadly, the DC50 is the concentration at which degradation of the target reaches its halfway point.

As to `CC(C)(C)[C@H](NC(=O)c1cc2cc(C(F)(F)P(=O)(O)O)ccc2s1)C(=O)N1C[C@@H](OCC(=O)NCCCCCCCCCC#Cc2ccc3c(c2)C(=O)N(C2CCC(=O)NC2=O)C3=O)C[C@H]1C(=O)N1CCO[C@H](c2ccccc2)C1` (stereo partly drawn) [Compound 492, ((2-(((2S)-1-((2S,4S)-4-(2-((11-(2-(2,6-dioxopiperidin-3-yl)-1,3-dioxoisoindolin-5-yl)undec-10-yn-1-yl)amino)-2-oxoethoxy)-2-((R)-2-phenylmorpholine-4-carbonyl)pyrrolidin-1-yl)-3,3-dimethyl-1-oxobutan-2-yl)carbamoyl)benzo[b]thiophen-5-yl)difluoromethyl)phosphonic acid], the 50% degradation concentration (DC50) under setting [1] is more than 10 µM. Take `Cc1ncsc1-c1ccc(CNC(=O)[C@@H]2C[C@@H](O)CN2C(=O)[C@@H](NC(=O)CCCCCCCNC(=O)CO[C@@H]2C[C@@H](C(=O)N(C)c3ccc(Br)cc3)N(C(=O)[C@@H](NC(=O)c3cc4cc(C(F)(F)P(=O)(O)O)ccc4s3)C(C)(C)C)C2)C(C)(C)C)cc1` [Compound 419, ((2-(((S)-1-((2S,4R)-2-((4-bromophenyl)(methyl)carbamoyl)-4-(2-((8-(((S)-1-((2S,4R)-4-hydroxy-2-((4-(4-methylthiazol-5-yl)benzyl)carbamoyl)pyrrolidin-1-yl)-3,3-dimethyl-1-oxobutan-2-yl)amino)-8-oxooctyl)amino)-2-oxoethoxy)pyrrolidin-1-yl)-3,3-dimethyl-1-oxobutan-2-yl)carbamoyl)benzo[b]thiophen-5-yl)difluoromethyl)phosphonic acid]: the DC50 under setting [2] is more than 10 µM and the DC50 under setting [3] is more than 10 µM. For `CC(C)(C)[C@H](NC(=O)c1cc2cc(C(F)(F)P(=O)(O)O)ccc2s1)C(=O)N1CCN(C(=O)CC(=O)NCCCCCC#Cc2ccc3c(c2)C(=O)N(C2CCC(=O)NC2=O)C3=O)C[C@H]1C(=O)N1CCC[C@H](c2ccccc2)C1` (stereo partly drawn) [Compound 530, ((2-(((2S)-1-((2S)-4-(3-((7-(2-(2,6-dioxopiperidin-3-yl)-1,3-dioxoisoindolin-5-yl)hept-6-yn-1-yl)amino)-3-oxopropanoyl)-2-((R)-3-phenylpiperidine-1-carbonyl)piperazin-1-yl)-3,3-dimethyl-1-oxobutan-2-yl)carbamoyl)benzo[b]thiophen-5-yl)difluoromethyl)phosphonic acid], under setting [1], the DC50 is more than 10 µM. For `CC(C)(C)[C@H](NC(=O)c1cc2cc(C(F)(F)P(=O)(O)O)ccc2s1)C(=O)N1Cc2cc(OCC(=O)NCCCC#Cc3cccc4c3C(=O)N(C3CCC(=O)NC3=O)C4=O)ccc2C[C@H]1C(=O)N1CCO[C@H](c2ccccc2)C1` (stereo partly drawn) [Compound 539, ((2-(((2S)-1-((3S)-7-(2-((5-(2-(2,6-dioxopiperidin-3-yl)-1,3-dioxoisoindolin-4-yl)pent-4-yn-1-yl)amino)-2-oxoethoxy)-3-((R)-2-phenylmorpholine-4-carbonyl)-3,4-dihydroisoquinolin-2(1H)-yl)-3,3-dimethyl-1-oxobutan-2-yl)carbamoyl)benzo[b]thiophen-5-yl)difluoromethyl)phosphonic acid], the half-maximal degradation concentration (DC50) under setting [1] is more than 10 µM.

In the case of `Cc1ncsc1-c1ccc([C@H](C)NC(=O)[C@@H]2C[C@@H](O)CN2C(=O)[C@@H](NC(=O)CCCCCCCCNC(=O)COc2ccc3c(c2)CN(C(=O)[C@@H](NC(=O)c2cc4cc(C(F)(F)P(=O)(O)O)ccc4s2)C(C)(C)C)[C@H](C(=O)N2CCC[C@H](c4ccccc4)C2)C3)C(C)(C)C)cc1` [Compound 477, (difluoro(2-(((S)-1-((S)-7-(2-((9-(((S)-1-((2S,4R)-4-hydroxy-2-(((S)-1-(4-(4-methylthiazol-5-yl)phenyl)ethyl)carbamoyl)pyrrolidin-1-yl)-3,3-dimethyl-1-oxobutan-2-yl)amino)-9-oxononyl)amino)-2-oxoethoxy)-3-((R)-3-phenylpiperidine-1-carbonyl)-3,4-dihydroisoquinolin-2(1H)-yl)-3,3-dimethyl-1-oxobutan-2-yl)carbamoyl)benzo[b]thiophen-5-yl)methyl)phosphonic acid], under setting [1], the 50% degradation concentration (DC50) is more than 10 µM. The same measure, in the same setting: then `CC(C)(C)[C@H](NC(=O)c1cc2cc(C(F)(F)P(=O)(O)O)ccc2s1)C(=O)N1CCN(C(=O)CC(=O)NCC#Cc2ccc3c(c2)C(=O)N(C2CCC(=O)NC2=O)C3=O)C[C@H]1C(=O)N1CCC[C@H](c2ccccc2)C1` (stereo partly drawn) [Compound 522, ((2-(((2S)-1-((2S)-4-(3-((3-(2-(2,6-dioxopiperidin-3-yl)-1,3-dioxoisoindolin-5-yl)prop-2-yn-1-yl)amino)-3-oxopropanoyl)-2-((R)-3-phenylpiperidine-1-carbonyl)piperazin-1-yl)-3,3-dimethyl-1-oxobutan-2-yl)carbamoyl)benzo[b]thiophen-5-yl)difluoromethyl)phosphonic acid], with more than 10 µM. As to `CC(C)(C)[C@H](NC(=O)c1cc2cc(C(F)(F)P(=O)(O)O)ccc2s1)C(=O)N1C[C@@H](OCCN2CCC(Nc3cccc4c3CN(C3CCC(=O)NC3=O)C4=O)CC2)C[C@H]1C(=O)N1CCO[C@H](c2ccccc2)C1` (stereo partly drawn) [Compound 605, ((2-(((2S)-1-((2S,4S)-4-(2-(4-((2-(2,6-dioxopiperidin-3-yl)-1-oxoisoindolin-4-yl)amino)piperidin-1-yl)ethoxy)-2-((R)-2-phenylmorpholine-4-carbonyl)pyrrolidin-1-yl)-3,3-dimethyl-1-oxobutan-2-yl)carbamoyl)benzo[b]thiophen-5-yl)difluoromethyl)phosphonic acid], under setting [4], the DC50 is more than 0.3 µM. As for `Cc1ncsc1-c1ccc(CNC(=O)[C@@H]2C[C@@H](O)CN2C(=O)[C@@H](NC(=O)CCCCNC(=O)CO[C@@H]2C[C@@H](C(=O)N(C)c3ccc(Br)cc3)N(C(=O)[C@@H](NC(=O)c3cc4cc(C(F)(F)P(=O)(O)O)ccc4s3)C(C)(C)C)C2)C(C)(C)C)cc1` [Compound 416, ((2-(((S)-1-((2S,4R)-2-((4-bromophenyl)(methyl)carbamoyl)-4-(2-((5-(((S)-1-((2S,4R)-4-hydroxy-2-((4-(4-methylthiazol-5-yl)benzyl)carbamoyl)pyrrolidin-1-yl)-3,3-dimethyl-1-oxobutan-2-yl)amino)-5-oxopentyl)amino)-2-oxoethoxy)pyrrolidin-1-yl)-3,3-dimethyl-1-oxobutan-2-yl)carbamoyl)benzo[b]thiophen-5-yl)difluoromethyl)phosphonic acid], the DC50 runs as follows: under setting [2], more than 10 µM; under setting [3], more than 10 µM.

As to `CC(C)(C)[C@H](NC(=O)c1cc2cc(C(F)(F)P(=O)(O)O)ccc2s1)C(=O)N1C[C@@H](OCCCCCCC#Cc2cccc3c2CN(C2CCC(=O)NC2=O)C3=O)C[C@H]1C(=O)N1CCOC(c2cccs2)C1` (stereo partly drawn) [Compound 611], under setting [4], the half-maximal degradation concentration (DC50) was more than 0.3 µM. With `CC(C)(C)[C@H](NC(=O)c1cc2cc(C(F)(F)P(=O)(O)O)ccc2s1)C(=O)N1C[C@@H](OCC(=O)NCCCC#Cc2ccc3c(c2)C(=O)N(C2CCC(=O)NC2=O)C3=O)C[C@H]1C(=O)N1CCO[C@H](c2ccccc2)C1` (stereo partly drawn) [Compound 484, ((2-(((2S)-1-((2S,4S)-4-(2-((5-(2-(2,6-dioxopiperidin-3-yl)-1,3-dioxoisoindolin-5-yl)pent-4-yn-1-yl)amino)-2-oxoethoxy)-2-((R)-2-phenylmorpholine-4-carbonyl)pyrrolidin-1-yl)-3,3-dimethyl-1-oxobutan-2-yl)carbamoyl)benzo[b]thiophen-5-yl)difluoromethyl)phosphonic acid], the DC50 under setting [1] fell in the range of 1 to 10 µM.

Source of the values: US20230295197A1, “STAT5 and STAT6 Degraders and Uses Thereof” (REGENTS OF THE UNIVERSITY OF MICHICAN, priority 2022, published 2023).
